Experimental data published in publication PMC12040169 (PLOS Biology, 2025).

Assay: in vitro
Conditions: human, hela cells, % viability

O=C(C1C2CCCCC21)N1CCC(Oc2ccc(F)cc2)CC1 (centres unmarked) [CBK282065]
viability at 28.5 h, 10 µM: 92.1%

CCn1c(C)nc2cc(C(=O)NC3CCCOC3)ccc21 (centres unmarked) [CBK282066]
viability at 28.5 h, 10 µM: 92.5%

Cc1nc(C)n(CCNC(=O)C(C)Cc2cccs2)n1 (centres unmarked) [CBK282067]
viability at 28.5 h, 10 µM: 79.7%

Cc1ccn(CCNC(=O)CC2CC3CCC2C3)n1 (centres unmarked) [CBK282068]
viability at 28.5 h, 10 µM: 110%

CC(Cc1ccccn1)NC(=O)Cn1ccnc1 (centres unmarked) [CBK282069]
viability at 28.5 h, 10 µM: 104%

CC(Cc1ccccn1)NC(=O)C1CC2C=CC1C21CC1 (centres unmarked) [CBK282070]
viability at 28.5 h, 10 µM: 90.7%

CCc1cc(CNC(=O)C2CC3C=CC2C32CC2)on1 (centres unmarked) [CBK282071]
viability at 28.5 h, 10 µM: 102%

Cc1nonc1CN(C)C(=O)C1CC2C=CC1C21CC1 (centres unmarked) [CBK282076]
viability at 28.5 h, 10 µM: 97.2%

Cc1cc(C)n(C(C)CC(=O)N2CCCCC2CCN2CCCC2)n1 (centres unmarked) [CBK282078]
viability at 28.5 h, 10 µM: 106%

CC1c2ccsc2CCN1C(=O)c1ccnn1C(C)C (centres unmarked) [CBK282079]
viability at 28.5 h, 10 µM: 89.2%

CC(Cn1cncn1)C(=O)N1CCc2sccc2C1C (centres unmarked) [CBK282080]
viability at 28.5 h, 10 µM: 106%

Cc1nn(C)cc1C(C)NC(=O)c1ccc(CN(C)C)o1 (centres unmarked) [CBK282083]
viability at 28.5 h, 10 µM: 96.1%

Cc1nccn1CCN(C)C(=O)C1CC2C=CC1C21CC1 (centres unmarked) [CBK282084]
viability at 28.5 h, 10 µM: 91.7%

CN(C)CC1CCCCN1C(=O)C1CC2C=CC1C21CC1 (centres unmarked) [CBK282085]
viability at 28.5 h, 10 µM: 86.6%

CN(C)CC1CCCCN1C(=O)C1C2CCCCC21 (centres unmarked) [CBK282087]
viability at 28.5 h, 10 µM: 97.7%

COCc1ccc(C(=O)N2CCN3C(=O)CCC32C)o1 (centres unmarked) [CBK282091]
viability at 28.5 h, 10 µM: 104%

Cc1cc(C(=O)N2CCN3C(=O)CCC32C)c(C2CC2)o1 (centres unmarked) [CBK282092]
viability at 28.5 h, 10 µM: 97.6%

Cc1nn(Cc2ccccc2)c(C)c1CC(=O)NCCn1ccnc1 [CBK282095]
viability at 28.5 h, 10 µM: 107%

CCC(=O)N1CCC(c2cc(-c3cccc(F)c3)n(C)n2)CC1 [CBK282096]
viability at 28.5 h, 10 µM: 107%

CC(=O)N1CCC(c2cc(-c3cccc(F)c3)n(C)n2)CC1 [CBK282097]
viability at 28.5 h, 10 µM: 101%

CC1(C)OC(=O)CC1C(=O)N1CCCC(COc2ccccc2F)C1 (centres unmarked) [CBK282098]
viability at 28.5 h, 10 µM: 100%

CC1CCCN(CC(C)(C)NC(=O)c2ccnn2C(F)F)C1 (centres unmarked) [CBK282099]
viability at 28.5 h, 10 µM: 98.4%

O=C(CCc1ccncc1)N1CCCCC1CN1CCCCCC1 (centres unmarked) [CBK282102]
viability at 28.5 h, 10 µM: 99.6%

Cc1cnn(CC(=O)N2CCCCC2CN2CCCCCC2)c1 (centres unmarked) [CBK282103]
viability at 28.5 h, 10 µM: 98.9%

Cc1c(C(=O)NC(C)c2ccncc2)oc2c(F)cccc12 (centres unmarked) [CBK282105]
viability at 28.5 h, 10 µM: 103%

CCn1nc(C(C)C)cc1C(=O)NCCN1CCC(C)CC1 [CBK282107]
viability at 28.5 h, 10 µM: 85.6%

c1ccc(CN2C[C@H]3CCc4c[nH]nc4[C@H]3C2)nc1 [CBK282108]
viability at 28.5 h, 10 µM: 87%

O=C(c1ccncc1)N1C[C@H]2CCc3c(n[nH]c3C(F)(F)F)[C@H]2C1 [CBK282110]
viability at 28.5 h, 10 µM: 87.3%

Cc1nc(C2CCN(Cc3ccccc3)C2)c2ccccn12 (centres unmarked) [CBK282111]
viability at 28.5 h, 10 µM: 88.1%

Cn1ccnc1SCCNC(=O)c1cccc(Cn2cccn2)c1 [CBK282112]
viability at 28.5 h, 10 µM: 105%

CCCC(=O)NCCn1ncc(-c2ccncc2)c1C1CC1 [CBK282116]
viability at 28.5 h, 10 µM: 83.6%

O=C(C1CCCN(CC(O)c2cccs2)C1)N1CCCCCC1 (centres unmarked) [CBK282117]
viability at 28.5 h, 10 µM: 100%

CCn1c(CN(C)Cc2cc(C)[nH]n2)nc2ccccc21 [CBK282120]
viability at 28.5 h, 10 µM: 110%

CN(C)CC1CCCN(C(=O)c2cc3cc(Cl)ccc3n2C)C1 (centres unmarked) [CBK282121]
viability at 28.5 h, 10 µM: 111%

CN(C)CC1CCCN(C(=O)c2cc3cc(F)ccc3n2C)C1 (centres unmarked) [CBK282122]
viability at 28.5 h, 10 µM: 85.6%

CCn1nc(C)c(CN(C)Cc2nc3ccccc3[nH]2)c1C [CBK282126]
viability at 28.5 h, 10 µM: 93.9%

Cc1nc2ccc(C(=O)N3CCN(C4CCCCC4)C(=O)C3)cc2[nH]1 [CBK282131]
viability at 28.5 h, 10 µM: 86.5%

O=C(C1CC1)N1CCCc2cc(C(O)CN3CCCCC3)ccc21 (centres unmarked) [CBK282135]
viability at 28.5 h, 10 µM: 99.5%

CC1CCCN(CC(O)c2ccc3c(c2)CCCN3C(=O)C2CC2)C1 (centres unmarked) [CBK282136]
viability at 28.5 h, 10 µM: 100%

Cc1nn(C(C)CC(=O)N2CCCC(CN(C)C)C2)c(C)c1Cl (centres unmarked) [CBK282137]
viability at 28.5 h, 10 µM: 107%

Cn1nc(C2CC2)cc1C(=O)NCCN1CCc2ccccc21 [CBK282138]
viability at 28.5 h, 10 µM: 91.5%

CCC(=O)N1CCCc2cc(C(O)CN3CCC(C)CC3)ccc21 (centres unmarked) [CBK282144]
viability at 28.5 h, 10 µM: 105%

CCN(CC)C(=O)CCn1c(-c2cccnc2C)cc2cccnc21 [CBK282147]
viability at 28.5 h, 10 µM: 91.5%

CCN(CC)C(=O)CCn1c(-c2ccc(C)nc2)cc2cccnc21 [CBK282150]
viability at 28.5 h, 10 µM: 87.2%

O=C(CCn1c(-c2ccncc2)cc2cccnc21)N1CCCC1 [CBK282151]
viability at 28.5 h, 10 µM: 96.7%

CC1CCCN(C(=O)CCn2c(-c3ccncc3)cc3cccnc32)C1 (centres unmarked) [CBK282152]
viability at 28.5 h, 10 µM: 108%

CC1CCCN(C(=O)CCn2c(-c3ccccn3)cc3cccnc32)C1 (centres unmarked) [CBK282154]
viability at 28.5 h, 10 µM: 91.2%

CCN(CC)C(=O)CCn1c(-c2cccnc2)cc2cccnc21 [CBK282160]
viability at 28.5 h, 10 µM: 106%

CN(CCCN1CCCCC1)C(=O)C1Cc2cc(Cl)ccc2O1 (centres unmarked) [CBK282162]
viability at 28.5 h, 10 µM: 104%

CC(C)c1cc(C(=O)N(CCO)CC2CC3C=CC2C3)n(C)n1 (centres unmarked) [CBK282164]
viability at 28.5 h, 10 µM: 84.6%

O=C(CCn1c(C(F)F)cc2cccnc21)NCC1CCCO1 (centres unmarked) [CBK282165]
viability at 28.5 h, 10 µM: 83%

CC(C(=O)N1CCC(c2nn(C)c3ncccc23)CC1)c1ccccc1 (centres unmarked) [CBK282166]
viability at 28.5 h, 10 µM: 97.4%

CC(=O)NCCn1cc2c(n1)[C@H]1CN(C(=O)C(C)(C)C)C[C@H]1CC2 [CBK282168]
viability at 28.5 h, 10 µM: 102%

CCCn1ncc(C(=O)N2CCC(Oc3ccccc3F)CC2)c1C [CBK282169]
viability at 28.5 h, 10 µM: 115%

CC(=O)NC(c1nccs1)C1CCCN(C(=O)C2CCCCC2)C1 (centres unmarked) [CBK282170]
viability at 28.5 h, 10 µM: 113%

CCc1cc(C(=O)N2CCC(Oc3ccccc3F)CC2)n(C)n1 [CBK282172]
viability at 28.5 h, 10 µM: 109%

Cc1ccc(-c2nc(C)sc2CC(=O)N(C)CCN(C)C)cc1 [CBK282175]
viability at 28.5 h, 10 µM: 112%

O=C(C1CC2C=CC1C21CC1)N1CCC(Oc2ccccc2F)CC1 (centres unmarked) [CBK282179]
viability at 28.5 h, 10 µM: 103%

Cc1c(CN2CCCCC2CCN2CCCC2=O)oc2ccccc12 (centres unmarked) [CBK282181]
viability at 28.5 h, 10 µM: 104%

CCC(CC)C(=O)N1C[C@H]2CCc3cn(CCNC(C)=O)nc3[C@H]2C1 [CBK282183]
viability at 28.5 h, 10 µM: 104%

Cc1nn(CC(C)C(=O)N2CCCC(CN(C)C)C2)c(C)c1Cl (centres unmarked) [CBK282186]
viability at 28.5 h, 10 µM: 102%

COc1ccc2c(c1)c(C)c(C(=O)N1CCCCC1CN(C)C)n2C (centres unmarked) [CBK282190]
viability at 28.5 h, 10 µM: 90.1%

CN(C)CC1CCCCN1C(=O)C1CC(=O)N(c2cccc(F)c2)C1 (centres unmarked) [CBK282192]
viability at 28.5 h, 10 µM: 108%

Cc1nc(SCC(=O)NCC2CCCOC2)oc1C (centres unmarked) [CBK282195]
viability at 28.5 h, 10 µM: 94.6%

Cc1nc(C)c(C(=O)NCCN2CCCCC2C)s1 (centres unmarked) [CBK282200]
viability at 28.5 h, 10 µM: 106%

O=C(CC1CCCCO1)Nc1cccc(Cn2ccnc2)c1 (centres unmarked) [CBK282204]
viability at 28.5 h, 10 µM: 90.6%

CCN1CCCCC1CNC(=O)c1cc(C2CC2)n[nH]1 (centres unmarked) [CBK282205]
viability at 28.5 h, 10 µM: 91.1%

CCN1CCCCC1CNC(=O)c1n[nH]c2c1CCC2 (centres unmarked) [CBK282207]
viability at 28.5 h, 10 µM: 96.2%

CC(CNC(=O)Cn1nc(C(F)(F)F)c2c1CCC2)N1CCCC1 (centres unmarked) [CBK282212]
viability at 28.5 h, 10 µM: 89.9%

CN(CC(F)(F)F)C(=O)CCc1nc(-c2cccs2)no1 [CBK282215]
viability at 28.5 h, 10 µM: 89.8%

O=C(C1C2CCCCC21)N1CCC(Oc2cccc(F)c2)CC1 (centres unmarked) [CBK282216]
viability at 28.5 h, 10 µM: 106%

COc1ccc2c(c1)CCCN2C(=O)CCn1ccc(C)n1 [CBK282217]
viability at 28.5 h, 10 µM: 104%

CCc1noc(C)c1C(=O)NCCN1CCCCC1C (centres unmarked) [CBK282219]
viability at 28.5 h, 10 µM: 98.9%

CC(Cn1cccn1)NCc1cn(C)c2cc(F)ccc12 (centres unmarked) [CBK282220]
viability at 28.5 h, 10 µM: 88.4%

Cc1nc(C)c(C(=O)NCCN2CCCC2=O)s1 [CBK282222]
viability at 28.5 h, 10 µM: 84.2%

Cc1nc(C)n(CCC(=O)NC(C)c2cccs2)n1 (centres unmarked) [CBK282224]
viability at 28.5 h, 10 µM: 105%

CN1CC(c2ccccc2)C2(CCNCC2)C1 (centres unmarked) [CBK282225]
viability at 28.5 h, 10 µM: 105%

Cc1csc(C(Cc2ccsc2)NC(=O)C2CC2C)n1 (centres unmarked) [CBK282226]
viability at 28.5 h, 10 µM: 86.7%

Cc1csc(C(Cc2ccsc2)NC(=O)CC2CCCO2)n1 (centres unmarked) [CBK282227]
viability at 28.5 h, 10 µM: 92.1%

Cc1nc(C(Cc2ccsc2)NC(=O)C2CCCNC2)sc1C (centres unmarked) [CBK282228]
viability at 28.5 h, 10 µM: 87.6%

Cc1nc(C2CCN(C(=O)c3ccncc3)CC2)c2sccn12 [CBK282235]
viability at 28.5 h, 10 µM: 99.9%

Cc1nc(C2CCN(C(=O)c3ccccn3)CC2)c2sccn12 [CBK282238]
viability at 28.5 h, 10 µM: 91.6%

O=C(Cc1ccccn1)NC(Cc1cccs1)c1ccccn1 (centres unmarked) [CBK282243]
viability at 28.5 h, 10 µM: 93.1%

CCn1cc(-c2cncn2CCCn2ccnc2C(C)C)cn1 [CBK282244]
viability at 28.5 h, 10 µM: 89.4%

Cn1ncc2c1CCCN(C(=O)c1ccccc1C(F)(F)F)C2 [CBK282251]
viability at 28.5 h, 10 µM: 84.1%

Cn1ncc2c1CCCN(C(=O)c1cccc(C(F)(F)F)c1)C2 [CBK282252]
viability at 28.5 h, 10 µM: 87.3%

Cn1cc(CN2C3CCC(C3)[C@@H]2COc2ccc(F)cc2)cn1 (some centres unmarked) [CBK282257]
viability at 28.5 h, 10 µM: 106%

Cc1nn(C)c(C)c1-c1ccc(=O)n(Cc2ccc(F)cc2)n1 [CBK282258]
viability at 28.5 h, 10 µM: 95.3%

CCCC(=O)N1CCCCC1c1c(-c2onc(C)c2C)cnn1C (centres unmarked) [CBK282259]
viability at 28.5 h, 10 µM: 94.7%

O=C(CCn1cccn1)N1Cc2ccccc2CC1C1CCOCC1 (centres unmarked) [CBK282262]
viability at 28.5 h, 10 µM: 83.8%

CC(C(=O)NCCc1cn(C)c2ccc(Cl)cc12)N1CCOCC1 (centres unmarked) [CBK282263]
viability at 28.5 h, 10 µM: 94.6%

Cc1ncncc1C(=O)N1CCCCC1CCc1ccccc1 (centres unmarked) [CBK282264]
viability at 28.5 h, 10 µM: 109%

Cc1cc2ncc3c(n2n1)CC1CCC3N1Cc1ccccc1 (centres unmarked) [CBK282266]
viability at 28.5 h, 10 µM: 104%

O=CN1C2CCC1c1cnc3cc(-c4cccc(F)c4)nn3c1C2 (centres unmarked) [CBK282269]
viability at 28.5 h, 10 µM: 91.9%

O=C1NC2=C(C(=O)N(CC3CCCO3)C2)C(c2ccc(F)c(F)c2)N1 (centres unmarked) [CBK282271]
viability at 28.5 h, 10 µM: 98%
